# Test results reported in patent publication US7037902B2, “Affinity small molecules for the EPO receptor” (Receptron, Inc., priority 2002, dated 2006).
# “Also recorded” adds a separate entry of the source.
# Columns and labels:
# cortical neurons = experiment: glutamate-induced neuronal death in cultured cortical neurons; assay type: cell-based, rats; conditions: 300 μM glutamate for 24 hours
# Method: Primary cultured cells were used as a model to evaluate the subject small molecule effect on CNS. Glutamate neurotoxicity can be most directly studied using neurons prepared from the brain at the late embryonic stage and subsequently cultured for maturation. To examine the effect of the subject small molecules (E5A24 and E5A29) on glutamate-induced neuronal death, cortical neurons isolated from embryonic day 18 rats, were cultured for 10 days. Subsequently, neurons were treated for 24 hours with or without the subject small molecules, and further exposed to 300 μM glutamate for 24 hours. After glutamate was washed out, the cells were cultured for another 24 hours. During the glutamate challenge and subsequent culture, the subject small molecules were absent. Finally, the cell viability was examined. […] Experiments were performed according to the literature (Morishita et. al., Neuroscience 76, 105, 1997).
# [1] = tested on: EPO-Receptor down stream signaling pathway; experiment: in vitro signaling (phosphorylation of EPO-R, JAK2, STAT1, STAT3, STAT5); assay type: cell-based; conditions: UT-7 cells
# Method: UT-7 cells were grown in Minimal Essential Medium Alpha (MEM-α) containing 20% FBS, 1.5 g/L NaHCO3, 5 ng/ml GM-CSF, and 100U Penicillin/100 μg/ml Streptomycin Sulfate (“P/S”), in T150 flasks (60 ml/flask) at 37° C., 5% CO2 to a density of no more than 5×10^5 cells/ml. The cells were starved overnight in MEM-α containing 10% FBS, 1.5 g/L NaHCO3 and P/S in T150 flasks (60 ml/flask) at a density of 5×10^5 cells/ml, in 5% CO2, 37° C. The cells were then centrifuged in a swinging-bucket rotor at 200×g for 5 minutes at room temperature. The supernatant was removed, and the cells pooled into one 50 ml conical tube. The cells were washed twice with serum-free medium (MEM-α containing 1.5 g/L NaHCO3 and P/S). After the last wash, the cells were resuspended to a density of 1×10^7 cells/ml in serum-free medium. The cells were then placed in 15 ml conical tubes in 1 ml aliquots and incubated with the caps loosened for 1 hour at 37° C., 5% CO2. Every 10 minutes, the lower portion of each tube was tapped (flicked) several times to prevent the cells from settling (please note, this step is very important!)
# It was also observed that EPO-R was phosphorylated when stimulated with non-peptide EPO-R modulators. (See FIG. 4) […]
# TF-1 and UT-7 cells = experiment: biological testing in cell lines (cell proliferation and cell signaling); assay type: cell-based; conditions: biological testing in cell line
# Source text: Compounds identified in the initial screen were further tested for their biological activity in two assays: a cell proliferation assay and a cell signaling assay in TF-1 and UT-7 cells. The hit rate in cell proliferation was 0.16%; hit rate in cell signaling was 0.25%.
# Compounds identified in the initial screen were further tested for their biological activity in two assays: a cell proliferation assay and a cell signaling assay in TF-1 cells. The hit rate in cell proliferation was 0.16%; hit rate in cell signaling was 0.25%.
# mouse bone marrow cells = experiment: formation of erythroid colonies from mouse bone marrow in methylcellulose; assay type: cell-based
# Method: (§1) Mouse or human bone marrow cells were stimulated in methylcellulose for 7 days (mouse) or 14 days (human) with non-peptide EPO-R modulators. Formation of erythroid colonies was observed. (See FIGS. 6 to 8)
# Bone marrow cells were isolated from mouse femurs. Cells were washed twice with PBS and resuspended to a density of 6.5×10^6 cells/ml in media. 300 μl (6.5×10^5/ml) of cells were mixed with 1.5 ml of methylcellulose media (Stemcell Technology) to which the desired concentration of compound or the EPO was added. The mixture was poured onto 35 mm dishes; all the conditions are performed in duplicates. The incubation was for […] at 37° C., 5% CO2. The colonies were scored on day seven.
# After thawing methylcellulose overnight, the next morning, 20 ml of Iscove's MDM+2%FBS is added to the bottle to achieve 100 ml total. The bottle is mixed for at least 30 seconds and settled for about 10 minutes. 10 cc syringes are used to aliquot 3 ml per minisorp tube.
# TF-1 cells = experiment: cell proliferation; assay type: cell-based; conditions: 96 hours
# Method: TF-1 cells were stimulated for 96 hours with different non-peptide EPO-R modulators, and it was observed that the non-peptide EPO binding molecules stimulated cellular proliferation in dose-responsive manner and to the extent of the natural hormone.
# human bone marrow cells = experiment: formation of erythroid colonies from human bone marrow in methylcellulose; assay type: cell-based
# Method: as §1
# (1) Dilute human bone marrow 1:1 with sterile PBS. (2) Slowly layer bone marrow into 50 ml tubes containing 20 ml of LSM Lymphocyte separation medium (ICN/Cappel—cat #50494). 50 ml bone marrow will yield 2 tubes. (3) Spin tubes at 2000 rpm for 30 minutes with brake off. (4) Slowly take out the middle layer using a 10 ml pipette and transfer into a new 50 ml tube. (5) Add PBS+0.5% BSA+5 mM EDTA to tube for washing. (6) Spin tube for 5 minutes at speed 4 with brake on. (7) Repeat wash step 2 more times. (8) After 3rd wash, resuspend pellet in SF Iscoves' MDM medium. (9) Count by diluting cells in 3% acetic acid. (10) Dilute cells to desired concentration (5×10^5 cells/ml) and seed onto methylcellulose.
# (1) Tubes containing 3.0 ml of methylcellulose medium (Stemcell Technology, cat # H4230) supplemented with 50 ng/ml hSCF are prepared. (Alternatively the methylcellulose could be supplemented with 50 ng/ml hSCF, 20 ng/ml of hIL-3 and hIL-6). (2) Compounds or EPO of desired concentrations are added to the tubes. “Control” tubes or tubes that will receive EPO are supplemented with DMSO to a final concentration of 0.16%. […] Colonies are scored on day twelve.
# Bcl-xl protein = experiment: up-regulation of Bcl-xl expression (immunoprecipitation, western blot); assay type: cell-based
# Method: When the subject compounds were tested for anti-apoptotic effect was evaluated, these antibodies were used: Anti-Bcl-X1/s antibody (Santa Cruz Biotechnology, SC-1041), Anti-Bcl-X1 antibody (Santa Cruz Biotechnology, SC8392)
# A number of molecules of the subject invention were evaluated in in vitro systems that reflect the condition of cerebral ischemia and metabolic stress. Firstly, it is known that one of the mechanisms by which EPO prevents neuronal apoptosis is by up-regulating the expression levels of Bcl-x1 protein, which is a well-described anti-apoptotic protein. Thus, cells-lines that are known to be EPO responsive (UT-7 and TF-1, used in previous studies) were used as a cellular system to examine the small molecules' anti-apoptotic activity through EPO-R.
# The evaluation was performed by starving the cells, stimulating the cells with compounds at appropriate concentrations (or no stimulation for control samples) and immunoprecipitating the cell lysates with antibody specific to both forms (short and long) of Bcl-x1 protein. The amount of Bcl-x1 (long protein form, known to have anti-apoptotic activity) protein was evaluated by western blot analysis.
# P-19 cells = experiment: cell survival of P-19 cells after withdrawal of serum; assay type: cell-based; conditions: P19 cells; treated 24 hours before, serum withdrawn for 48 hours
# Method: Experiments were performed according to the described protocol. The anti-apoptotic effect of the subject small molecules was evaluated in P-19 cells (a neural-like embryonal carcinoma cell line) that undergo apoptosis upon withdrawal of serum. Briefly, cells were treated with small molecules for 24 hours prior to serum withdrawal. Serum was withdrawn for 48 hours in the presence or absence of a subject small molecule (EM5 and E5A24). At the end of that period, cell survival was evaluated. […] This Figure is representative of the experiment and of the subject small molecules. The experiments were performed according to literature procedures (Siren et.al., Proc. Nat. Acad. Sci. 98, 4044, 2001). Cell survival was determined according to the protocol described for cellular proliferation.
compound,measurement,setting,value
Cc1n[nH]c2c1C(c1ccco1)C1=C(CC(C)(C)CC1=O)N2 (centres unmarked) [Cmpnd E5A29],cell survival of cortical neurons after glutamate challenge,cortical neurons,prevented glutamate induced neuronal death in a dose-responsive manner; also recorded: increased cell survival
same,increase of cell survival,cortical neurons; cortical neurons,60%
Cc1ccc(Cl)cc1Nc1nc2nc(C)c(NCC3CC3)cn2n1 [Cmpnd E5],activation of EPO-R,[1],activation of EPO-R
same,maximum activity compared to EPO natural hormone,TF-1 and UT-7 cells,maximum activity comparable to that of the maximum activity of EPO
same,erythroid colony formation (CFU-e),mouse bone marrow cells,stimulate CFU-e formation to the same extent as EPO
same,cellular proliferation,TF-1 cells,proliferative effect
same,erythroid colony formation (CFU-e),human bone marrow cells,stimulate CFU-e formation to the same extent as EPO
Cn1ncc(S(=O)Oc2ccccc2)c(Cl)c1=O (centres unmarked) [Cmpnd E6],maximum activity compared to EPO natural hormone,TF-1 and UT-7 cells,maximum activity comparable to that of the maximum activity of EPO
same,erythroid colony formation (CFU-e),mouse bone marrow cells,stimulate CFU-e formation to the same extent as EPO
same,erythroid colony formation (CFU-e),human bone marrow cells,stimulate CFU-e formation to the same extent as EPO
Cc1cc(NCC2CC2)n2nc(Nc3cc(Cl)ccc3C)nc2n1 [EM5],Bcl-xl expression,Bcl-xl protein; TF-1 cells,up-regulation of Bcl-xl expression
same,Bcl-xl expression,Bcl-xl protein; UT-7 cells,up-regulation of Bcl-xl expression
same,Bcl-x1 protein up-regulation,Bcl-xl protein; both cell lines (UT-7 and TF-1),induced up-regulation of Bcl-x1 protein in a dose-responsive manner
same,cell viability / protection from apoptosis after withdrawal of serum,P-19 cells,protect cells from apoptosis; also recorded: increased cell viability
